Data published in US20020107193A1, “Therapeutic uses for IP3 receptor-mediated calcium channel modulators” (priority 2000, published 2002).

Tests used:
IP3 receptor = details: Gafni et al., 1997; cited from earlier work
NF-κB [1] = experiment: Cell-free EMSA of NF-κB binding activity in brain cortex cytoplasmic fraction; type: biochemical, rat; details: 1 h; calcium 1 μM to 10 mM; 10 μM BAPTA-AM alone or with 10 μM calcium
Method: (§1) Total cell extracts were prepared as described (Baeuerle and Baltimore, 1988, Cell 53:211-217). Briefly, cells were harvested, washed twice with ice-cold PBS and lysed for 30 min at 4° C. in Totex buffer (20 mM HEPES, pH 7.9, 350 mM NaC1, 20% glycerol, 1% NP-40, 1 mM MgC12, 0.5 mM EDTA, 0.1 mM EGTA, 5 mM DTT, 0.1% PMSF, 1% aprotinin, 4 μg/ml leupeptin). Samples were centrifuged at 14,000× g for 10 min and aliquots of supernatant were collected and stored at −70° C. until taken for assay. The protein content of the extract (supernatant) was measured by Bradford method (BIO-RAD Laboratories, Ercules, Calif., USA). […]
(§2) After 20 min at room temperature, reaction products were separated on a 7% non-denaturing polyacrylamide gel. […] Radioactivity of dried gels was detected by exposure to Kodak X-Omat film and images on the developed film were scanned into a computer using a UMAX 1200s scanner. […]

[2] = test system: IP3 receptors on microsomes; experiment: Microsome extract (MSE) effect on cytoplasmic NF-κB binding activity; type: biochemical, rat; details: direct activation of IP3 receptors on microsomes with IP3
Method: Cerebral cortices from adult female Sprague-Dawley rats were homogenized (20 strokes at 300 rpm) with a Teflon homogenizer in ice-cold buffer containing 1 mM EDTA, 0.32 M sucrose, 0.1 mM dithiothreitol and 1 mM HEPES as described previously (Chen et al., 1998, Diabetes 47:874-81) and cytoplasmic and microsome fractions were isolated by differential centrifugation. Briefly, tissue fragments and cellular debris were removed by centrifugation at 500 g for 10 min and supernatants were centrifuged at 20,000 g for 20 min to pellet intact mitochondria and nuclei. The supernatant was then centrifuged at 100,000 g for 1 h in order to obtain the cytoplasmic fraction and the microsomal pellet enriched in endoplasmic reticulum and golgi membranes. Microsome extracts (MSE) were prepared by suspending microsomes in 1:100 v/v ice-cold buffer and centrifuging at 100,000× g for 1 hr. Microsomes were then re-suspended in 1:2 v/v volume buffer and treated as described below. At the end of the treatment, the suspension was centrifuged at 100,000 g for 1 h, and supernatants were used as MSE. For experiments involving incubation of MSE with cytoplasmic extract, 3 μl of MSE were added to 10 μl cytoplasmic extract and mixtures were incubated at room temperature for 1 h.
[…] After 1 h at room temperature, samples were examined for NF-κB binding activity.
Indeed, the role calcium plays in this paradigm seems to be as an intraluminal signal.

NF-κB [3] = experiment: EMSA of NF-κB binding activity in cultured primary cortical neurons; type: cell-based, rat; details: 6 h; for induction of NF-κB binding activity by the agent alone: cortical neurons, 100 ng/ml TNFα, 100 nM Tg or 20 μM glutamate
Method: Cerebral cortices were removed from embryonic day 18 Sprague-Dawley rats (Harlan, Indianapolis, Ind.). Cells were dissociated as described previously (Mattson et al., 1995, J. Neurochem. 65:1740-1751.) and were seeded into polyethyleneimine-coated 60 mm culture dishes containing Eagle's Minimum Essential Medium supplemented with 26 mM NaHCO3, 40 mM glucose, 20 mM KCl, 1 mM sodium pyruvate, 10% (v/v) heat-inactivated fetal bovine serum (Sigma, St. Louis, Mo.), and 0.001% gentamycin sulfate. After a 3-5 h incubation period to allow for cell attachment, the medium was replaced with 2 ml of Neurobasal Medium with B27 supplements (GIBCO Life Technologies, Grand Island, N.Y.). […] Experimental treatments were performed on 7-to-9-day-old neuronal cultures in which there were approximately 5% contaminating glial cells.
Total cell extracts were prepared as described (Baeuerle and Baltimore, 1988, Cell 53:211-217). Briefly, cells were harvested, washed twice with ice-cold PBS and lysed for 30 min at 4° C. in Totex buffer (20 mM HEPES, pH 7.9, 350 mM NaC1, 20% glycerol, 1% NP-40, 1 mM MgC12, 0.5 mM EDTA, 0.1 mM EGTA, 5 mM DTT, 0.1% PMSF, 1% aprotinin, 4 μg/ml leupeptin). Samples were centrifuged at 14,000× g for 10 min and aliquots of supernatant were collected and stored at −70° C. until taken for assay. The protein content of the extract (supernatant) was measured by Bradford method (BIO-RAD Laboratories, Ercules, Calif., USA).
After 20 min at room temperature, reaction products were separated on a 7% non-denaturing polyacrylamide gel. Competition experiments were performed by incubating extracts with labeled oligonucleotide probe in the presence of 100-fold molar excess unlabeled NF-KB or CREB oligonucleotide. To characterize the NF-KB complexes, supershift assays were performed. Extracts were preincubated for 45 min at room temperature with antibodies recognizing either p50 or p65 sub-units of NF-κB (Santa Cruz Biotechnology, Santa Cruz, Calif.) or c-Fos (Oncogene Research Products, Cambridge, Mass.). The mixtures were further incubated with ^32P-labeled probe and resolved as described above. Radioactivity of dried gels was detected by exposure to Kodak X-Omat film and images on the developed film were scanned into a computer using a UMAX 1200s scanner. Densitometry was performed using Scion Image software (Scion Inc., Frederick, Md.). Paint Shop Pro software (JASC Inc. Minneapolis, Minn.) was used for preparation of the final figures.
(§3) The possible involvement of endoplasmic reticulum pools of intracellular calcium regulated by IP3 receptors in controlling basal levels of NF-κB was investigated using Xestospongin C (XeC) a specific membrane permeable modulator of IP3-mediated Ca^2+release (Gafni et al., 1997, Neuron 19:723-733; Hu et al., 1999, J. Biol. Chem. 274:33995-33998), and thapsigargin (Tg), a specific inhibitor of ER calcium/ATPase (Thastrup et al., 1990, Proc. Natl. Acad. Sci. USA 87:2466-2470; Davidson and Varhol, 1995, J. Biol. Chem. 270:11731-11734.). Cultured primary cortical neurons were treated with either 1 μM XeC, 100 nM Tg or vehicle for 6 h and protein extracts were analyzed for NF-κB binding activity by EMSA electrophoresis.

CREB [4] = experiment: EMSA of CREB binding activity in cultured primary cortical neurons; type: cell-based, rat
Method: Cerebral cortices were removed from embryonic day 18 Sprague-Dawley rats (Harlan, Indianapolis, Ind.). Cells were dissociated as described previously (Mattson et al., 1995, J. Neurochem. 65:1740-1751.) and were seeded into polyethyleneimine-coated 60 mm culture dishes containing Eagle's Minimum Essential Medium supplemented with 26 mM NaHCO3, 40 mM glucose, 20 mM KCl, 1 mM sodium pyruvate, 10% (v/v) heat-inactivated fetal bovine serum (Sigma, St. Louis, Mo.), and 0.001% gentamycin sulfate. After a 3-5 h incubation period to allow for cell attachment, the medium was replaced with 2 ml of Neurobasal Medium with B27 supplements (GIBCO Life Technologies, Grand Island, N.Y.). Previous observations have shown that greater than 80% of the cells that attach in the first few hours after plating will survive longer than 7 days in Neurobasal Medium with no additional neurotrophic factors. Experimental treatments were performed on 7-to-9-day-old neuronal cultures in which there were approximately 5% contaminating glial cells.
as §1, §2, §3

CREB [5] = experiment: Cell-free EMSA of CREB binding activity in brain cortex cytoplasmic fraction; type: biochemical, rat; details: calcium 10 μM, 100 μM and 1 mM, 1 h
Method: as §1, §2

## C1CCC[C@H]2CCCN3CC[C@H](CCCCCC[C@H]4CCCN5CC[C@H](CC1)O[C@H]45)O[C@H]23 [ArB, Araguspongine B]
IP3 receptor
  block of IP3-mediated calcium release: potent blockers

## CC(=O)OCOC(=O)CN(CC(=O)OCOC(C)=O)c1ccccc1OCCOc1ccccc1N(CC(=O)OCOC(C)=O)CC(=O)OCOC(C)=O [BAPTA-AM]
NF-κB [1]
  NF-κB binding activity in cytoplasmic fraction: had no affect

## O[C@@]12CCCCCC[C@H]3CCN4CCC[C@@H](CCCCCC[C@H]5CCN(CCC1)[C@@H]2O5)[C@H]4O3 [DMXeB, demethylxestospongin B]
IP3 receptor
  block of IP3-mediated calcium release: potent blockers

## O=P(O)(O)O[C@@H]1[C@H](O)[C@H](O)[C@@H](OP(=O)(O)O)[C@H](OP(=O)(O)O)[C@H]1O [IP3, inositol-1,4,5 triphosphate, reference compound]
[2]
  NF-κB stimulating properties of MSE from treated microsomes: NF-κB stimulating properties similar to that seen with Tg

## C/C=C(/C)C(=O)O[C@H]1C(C)=C2[C@H]([C@@H]1OC(=O)CCCCCCC)[C@@](C)(OC(C)=O)C[C@H](OC(=O)CCC)[C@@]1(O)[C@H]2OC(=O)[C@@]1(C)O [Tg, thapsigargin, reference compound]
NF-κB [3]
  induction of NF-κB binding activity by the agent alone: Induction of NF-κB binding activity was observed
NF-κB [3]; cultured primary cortical neurons, 1 μM XeC or 100 nM Tg, EMSA
  basal NF-κB binding activity relative to control levels: statistically significant (p<0.05) elevation
CREB [4]; cultured primary cortical neurons, 6 h, 1 μM XeC or 100 nM Tg, data not shown
  CREB binding activity: slightly augmented CREB binding activity; however, this was not statistically significant

## O[C@@]12CCCCCC[C@H]3CCN4CCC[C@H](CCCCCC[C@H]5CCN(CCC1)[C@@H]2O5)[C@H]4O3 [XeD]
IP3 receptor
  block of IP3-mediated calcium release: potent blockers

## [Ca+2] [calcium]
CREB [5]
  CREB binding activity in cytoplasmic fraction: greatly enhanced
NF-κB [1]
  NF-κB binding activity in cytoplasmic fraction: none of the calcium concentrations used increased NF-κB binding activity

## tumor necrosis factor α [TNFα, reference compound]
NF-κB [3]
  induction of NF-κB binding activity by the agent alone: statistically significant (p<0.05) enhancement
CREB [4]; cortical neurons, XeC 30 min pretreatment, 100 ng/ml TNFα 6 h, FIG. 2a
  binding activity of CREB, agent alone: neither TNFα nor XeC alone affected the binding activity of CREB
